Assay [1] addresses T1, morphine dehydrogenase (MDH) (Pseudomonas putida, UniProt Q02198). Description: Cofactor requirement of MDH. Format: biochemical, Pseudomonas putida MlO.
Assay [2] concerns the target T1, morphine dehydrogenase (MDH). Description: Substrate specificity of morphine dehydrogenase (Example 4). It counts as biochemical, Pseudomonas putida MlO. The settings on record: 0.35 μg purified enzyme, pH 9.5.
For assay [3] the target is unchanged. Put plainly: biochemical. Format: biochemical, Pseudomonas putida MlO. The settings on record: for (b) Relative activity: 16 h at 4° C. then 10 min at 30° C., no addition gives 16.
For assay [4] the target is unchanged. Put plainly: Non-oxidation of steroids by morphine dehydrogenase (Example 2 standard assay). It counts as biochemical, Pseudomonas putida MlO. The settings on record: morphine replaced by the steroid in the standard assay.
The test system of assay [5] is acetylmorphine carboxylesterase (AMCE). Put plainly: Substrate specificity of the AMCE (HPLC). Format: biochemical, Rhodococcus Hl. The conditions noted are these: substrate 1.0 mM, purified AMCE 5 U, potassium phosphate buffer pH 7.5, 30° C.
The target of assay [6] is T1, morphine dehydrogenase (MDH). Format: biochemical, Pseudomonas putida MlO.
Assay [7] concerns washed cells of P. putida MlO. It counts as cell-based, Pseudomonas putida MlO.
[8] abbreviates: 10 min, read-out: (a) Relative activity.
[9] abbreviates: 16 h, read-out: (b) Relative activity.

“Also recorded” adds a separate entry of the source. Read-outs that look alike come from different tables or passages of the source.

T1 sequence (Q02198 whole entry): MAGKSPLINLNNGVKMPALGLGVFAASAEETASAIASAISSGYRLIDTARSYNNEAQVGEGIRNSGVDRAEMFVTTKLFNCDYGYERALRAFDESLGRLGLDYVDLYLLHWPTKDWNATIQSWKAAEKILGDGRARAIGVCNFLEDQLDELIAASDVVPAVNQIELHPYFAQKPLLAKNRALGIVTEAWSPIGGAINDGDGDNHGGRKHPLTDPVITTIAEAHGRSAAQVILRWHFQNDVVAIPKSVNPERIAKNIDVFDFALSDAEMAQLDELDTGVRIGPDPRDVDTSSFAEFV

Regarding 3-acetylpyridine ADP, in assay [1], the “operability as cofactor for MDH” value is “operable”.
As for `O=C(O)C(O)c1ccccc1` (racemic) [D,L-mandelic acid], the “activity relative to 3 mM morphine” value in assay [2] (final concentration 10 Mm) is recorded as “zero”.
For the compound `O[C@H](CS)[C@H](O)CS` (racemic) [Dithiothreitol], the activity at 1000 µM in assay [3] (setting [8]) stood at 97%; in assay [3] (setting [9]), 64%.
Regarding `C[C@]12CC[C@@H](O)C[C@@H]1CC[C@@H]1[C@@H]2CC[C@]2(C)C(=O)CC[C@@H]12` (stereo in doubt) [androsterone], the “activity relative to 3 mM morphine” value in assay [2] (final concentration 10 Mm) was “zero”. In assay [4], the “steroid dehydrogenase activity of MDH” value is given as “No steroid dehydrogenase activity was detected”.
Regarding `c1cnc2c(c1)ccc1cccnc12` [1,10-Phenanthroline], the activity at 50 µM in assay [3] (setting [8]) stood at 76%. For the same compound, the activity at 500 µM in assay [3] (setting [8]) amounted to 61%; in assay [3] (setting [9]), 14%.
The matching figures for `c1ccc(-c2ccccn2)nc1` [2,2'-Dipyridyl]: 75%, 67% and 9%.
Consider `CC(=O)Oc1ccc2c3c1O[C@H]1[C@@H](O)C=C[C@H]4[C@@H](C2)N(C)CC[C@@]341` [3-acetylmorphine], for which the “time taken to reduce the substrate concentration by 20%” value in assay [5] was 2 min.
As for `CC(=O)O[C@H]1C=C[C@H]2[C@H]3Cc4ccc(O)c5c4[C@@]2(CCN3C)[C@H]1O5` [6-acetylmorphine], the “time taken to reduce the substrate concentration by 20%” value in assay [5] was determined as 240 min. Also, the “ability to serve as MDH substrate” value in assay [6] (pH 10) is “completely inactive; also recorded: no activity”. For the same compound, in assay [2] (alkaloid substrates 3 mM), the “activity relative to 3 mM morphine” value is “zero”.
With `Oc1cccc2cccnc12` [8-Hydroxyquinoline], the “(a) Relative activity” value in assay [3] (purified mdh, 10 min, 50 µM) was 100%.
As to `O=S(=O)([O-])[O-].[Cu+2]` [CuSO4], the “(a) Relative activity” value in assay [3] (reagent 0.1 mM, 10 min at room temperature, 100% = 67 U/mg) is 34%. In assay [3] (reagent 0.1 mM), the “(b) Relative activity” value is reported as 5%.
Take `O=C(O)CN(CCN(CC(=O)O)CC(=O)O)CC(=O)O` [EDTA]: the results for the activity at 500 µM in assay [3] (setting [8]) and in assay [3] (setting [9]) were 104% and 18%, respectively.
Consider `O=C(O)CI` [Iodoacetate], for which, in assay [3] (setting [8]), the activity at 100 µM was determined as 61%, the activity at 1000 µM is 58% and the activity at 10000 µM was 54%. For the same compound, the activity at 10000 µM in assay [3] (setting [9]) was determined as 30%.
For `OCCS` [Mercaptoethanol], the activity at 1000 µM in assay [3] (setting [8]) worked out at 100%; in assay [3] (setting [9]), 73%.
With `CCN1C(=O)C=CC1=O` [N-Ethylmaleimide], the activity at 50 µM in assay [3] (setting [8]) was 100%. Further, the activity at 1000 µM amounted to 58% in assay [3] (setting [8]) and 23% in assay [3] (setting [9]).
Regarding `NC(=O)c1ccc[n+]([C@@H]2O[C@H](COP(=O)([O-])OP(=O)(O)OC[C@H]3O[C@@H](n4cnc5c(N)ncnc54)[C@H](OP(=O)(O)O)[C@@H]3O)[C@@H](O)[C@H]2O)c1` [NADP^+, nicotinamide adenine dinucleotide phosphate], the “operability as cofactor for MDH” value in assay [1] is recorded as “absolute requirement”.
On the same count and under the same terms, the result for `NC(=O)c1ccc[n+]([C@@H]2O[C@H](COP(=O)([O-])OP(=O)(O)OC[C@H]3O[C@@H](n4cnc5c(N)ncnc54)[C@H](O)[C@@H]3O)[C@@H](O)[C@H]2O)c1` [NAD^+] reads “shown not to be a substrate; also recorded: have not been found to be operable”.
`OCc1ccccc1` [benzyl alcohol]: the “activity relative to 3 mM morphine” value in assay [2] (alcohol substrates 50 mM) is recorded as “zero”.
For `CCC(C)O` (stereo not drawn) [butan-2-ol], in assay [2] (alcohol substrates 50 mM), the “activity relative to 3 mM morphine” value is given as “zero”.
As for `COc1ccc2c3c1O[C@H]1[C@@H](O)C=C[C@H]4[C@@H](C2)N(C)CC[C@@]341` [codeine], in assay [6] (pH 10), the “activity relative to morphine” value was 1.7 times that of morphine. The “activity relative to 3 mM morphine” value in assay [2] (alkaloid substrates 3 mM) worked out at 120%. Moreover, in assay [7], the “metabolism by washed cells grown on heroin” value (from here on “metabolism”) was “readily metabolised”.
`COc1ccc2c3c1O[C@H]1C(=O)C=C[C@H]4[C@@H](C2)N(C)CC[C@]314` [codeinone]: in assay [6], the “reverse direction reaction with NADPH” value is on record as “catalysed the oxidation of NADPH”. Further, the “ability to serve as MDH substrate” value in assay [6] (pH 10) is “completely inactive”.
As for `OC1CCCCC1` [cyclohexanol], the “activity relative to 3 mM morphine” value in assay [2] (alcohol substrates 50 mM) is listed as “zero”.
Turning to `COc1ccc2c3c1O[C@H]1[C@@H](O)CC[C@H]4[C@@H](C2)N(C)CC[C@@]341` [dihydrocodeine], in assay [6] (pH 10), the “ability to serve as MDH substrate” value is “completely inactive; also recorded: did not show any activity”. Also, the “activity relative to 3 mM morphine” value in assay [2] (alkaloid substrates 3 mM) is recorded as 7.1%.
Consider `CCO` [ethanol], for which the “ability to serve as MDH substrate” value in assay [6] was “negative result”; in assay [6] (pH 10) it was “completely inactive; also recorded: does not oxidise”. Also, the “activity relative to 3 mM morphine” value in assay [2] (alcohol substrates 50 mM) is on record as “zero”.
Take `CCOc1ccc2c3c1O[C@H]1[C@@H](O)C=C[C@H]4[C@@H](C2)N(C)CC[C@@]341` [ethylmorphine]: the “activity relative to morphine” value in assay [6] (pH 10) is recorded as 1.2 times that of morphine. Besides, the “metabolism” value in assay [7] was “readily metabolised”.
Turning to `CN1CC[C@]23c4c5ccc(O[C@@H]6O[C@H](C(=O)O)[C@@H](O)[C@H](O)[C@H]6O)c4O[C@H]2[C@@H](O)C=C[C@H]3[C@H]1C5` [morphine glucuronide], the “ability to serve as MDH substrate” value in assay [6] (pH 10) is “completely inactive; also recorded: Inactivity”.
Consider `CN1CC[C@]23c4c5ccc(O)c4O[C@H]2[C@@H](O)C=C[C@H]3[C@H]1C5` [morphine], for which the “specific activity as MDH substrate” value in assay [6] (pH 10) is 0.002 μmol/min./mg. protein. The dehydrogenase activity in assay [2] (3 mM substrate) is on record as 0.0252 μmol NADPH/min.
As for `COc1ccc2c3c1O[C@H]1C(=O)CC[C@@]4(O)[C@@H](C2)N(C)CC[C@]314` [oxycodone], the “ability to serve as MDH substrate” value in assay [6] (pH 10) is “completely inactive; also recorded: no activity”.
`O=C(O)c1cc[c]([Hg+])cc1.[OH-]` [p-Hydroxymercuribenzoate]: in assay [3] (reagent 0.01 mM, 10 min at room temperature, 100% = 67 U/mg), the “(a) Relative activity” value is 0%. For the same compound, in assay [3] (reagent 0.01 mM), the “(b) Relative activity” value was 0%. Further, the “activity recovered after incubation with 3 mM dithiothreitol for 10 min” value in assay [3] (reagent 0.01 mM, incubation (a)) is listed as 45%; in assay [3] (reagent 0.01 mM, incubation (b)), 23%.
Consider `CN1CC[C@]23c4c5ccc(OCCN6CCOCC6)c4O[C@H]2[C@@H](O)C=C[C@H]3[C@H]1C5` [pholcodeine], for which, in assay [6] (pH 10), the “ability to serve as MDH substrate” value is “completely inactive; also recorded: Inactivity”.
Consider `CC(C)O` [propan-2-ol], for which, in assay [2] (alcohol substrates 50 mM), the “activity relative to 3 mM morphine” value is listed as “zero”.
For the compound `CCCO` [propanol], in assay [2] (alcohol substrates 50 mM), the “activity relative to 3 mM morphine” value was “zero”.
In the case of `C[C@]12CC[C@H]3[C@@H](CCC4=CC(=O)CC[C@@]43C)[C@@H]1CC[C@@H]2O` [testosterone], in assay [2] (final concentration 10 Mm), the “activity relative to 3 mM morphine” value is “zero”. In addition, the “steroid dehydrogenase activity of MDH” value in assay [4] is on record as “No steroid dehydrogenase activity was detected”.
For the compound `COC1=CC=C2[C@H]3Cc4ccc(OC)c5c4[C@@]2(CCN3C)[C@H]1O5` [thebaine], the “ability to serve as MDH substrate” value in assay [6] (pH 10) was “completely inactive”. Besides, the “metabolism” value in assay [7] is recorded as “not degraded at all”.
For nicotinamide hypoxanthine diphosphate, in assay [1], the “operability as cofactor for MDH” value is listed as “have not been found to be operable”.

The values are drawn from patent US5298414A (priority 1989, dated 1994).
